Test results published in ChEMBL document CHEMBL3046787, “Molecular modeling studies of some substituted chalcone derivatives as cysteine protease inhibitors” (Med Chem Res, 2012).

Test system: Plasmodium falciparum
Assay: Inhibition of Plasmodium falciparum W2

Row | Compound | IC50 (read-out: IC50) | IC50 (read-out: pIC50 (converted))
1 | COc1ccc(/C=C/C(=O)c2cccc3ccccc23)c(OC)c1OC | 5.8 µM | 5.79 µM
2 | COc1ccc(/C=C/C(=O)c2ccc(F)cc2F)c(OC)c1 | 1.9 µM | 1.9 µM
3 | COc1cc(/C=C/C(=O)c2ccc3ccccc3c2)cc(OC)c1OC | 6 µM | 6 µM
4 | COc1cc(/C=C/C(=O)c2cccc3ccccc23)cc(OC)c1 | 4.3 µM | 4.3 µM
5 | COc1ccc(OC)c(/C=C/C(=O)c2ccccn2)c1 | 1.4 µM | 1.4 µM
6 | COc1ccc(OC)c(/C=C/C(=O)c2cccc3ccccc23)c1 | 2.8 µM | 2.8 µM
7 | COc1ccc(/C=C/C(=O)c2cccnc2)c(OC)c1 | 2.7 µM | 2.7 µM
8 | COc1ccc(OC)c(/C=C/C(=O)c2cccc(Cl)c2Cl)c1 | 0.92 µM | 0.92 µM
9 | COc1cccc(OC)c1/C=C/C(=O)c1ccc(Cl)cc1 | 0.77 µM | 0.769 µM
10 | COc1ccc(/C=C/C(=O)c2ccncc2)c(OC)c1OC | 3.2 µM | 3.2 µM
11 | COc1ccc(OC)c(/C=C/C(=O)c2ccc3ccccc3c2)c1 | 5 µM | 5 µM
12 | COc1ccc(/C=C/C(=O)c2cccc(Cl)c2Cl)cc1OC | 1.14 µM | 1.14 µM
13 | O=C(/C=C/c1ccc(Cl)c(Cl)c1)c1ccnc2ccccc12 | 0.8 µM | 0.8 µM
14 | COc1ccc(/C=C/C(=O)c2cccc3ccccc23)cc1OC | 5 µM | 5 µM
15 | COc1ccc(/C=C/C(=O)c2ccncc2)cc1 | 12 µM | 12 µM
16 | COc1ccc(/C=C/C(=O)c2ccc(C(F)(F)F)cc2)c(OC)c1 | 0.75 µM | 0.75 µM
17 | COc1ccc(/C=C/C(=O)c2ccccn2)c(OC)c1 | 1.7 µM | 1.7 µM
18 | COc1cccc(OC)c1/C=C/C(=O)c1cccc2ccccc12 | 3.1 µM | 3.1 µM
19 | COc1ccc(/C=C/C(=O)c2cccnc2)c(OC)c1OC | 3.9 µM | 3.9 µM
20 | COc1ccc(OC)c(/C=C/C(=O)c2ccc(Cl)cc2Cl)c1 | 0.75 µM | 0.75 µM
21 | COc1cccc(OC)c1/C=C/C(=O)c1ccc2ccccc2c1 | 3.3 µM | 3.3 µM

Row | Compound | IC50 (read-out: IC50) | IC50 (read-out: pIC50 (converted))
22 | COc1ccc(/C=C/C(=O)c2cccc3ccccc23)c(OC)c1 | 4.6 µM | 4.6 µM
23 | O=C(/C=C/c1ccc(-n2ccnc2)cc1)c1ccc(Cl)cc1Cl | 1.18 µM | 1.18 µM
24 | COc1ccc(/C=C/C(=O)c2cc3ccccc3nc2Cl)cc1OC | 0.51 µM | 0.511 µM
25 | COc1ccc(/C=C/C(=O)c2cccc3ccccc23)cc1 | 10 µM | 10 µM
26 | O=C(/C=C/c1cc(Cl)ccc1Cl)c1ccnc2ccccc12 | 0.23 µM | 0.23 µM
27 | COc1ccc(/C=C/C(=O)c2ccccn2)c(OC)c1OC | 2.3 µM | 2.3 µM
28 | COc1ccc(/C=C/C(=O)c2cccnc2)cc1 | 10 µM | 10 µM
29 | COc1ccc(C(=O)/C=C/c2ccc(Cl)cc2Cl)c(OC)c1 | 3.8 µM | 3.8 µM
30 | COc1ccc(C(=O)/C=C/c2ccc(F)cc2F)c(OC)c1 | 11.1 µM | 11.1 µM
31 | COc1ccc(/C=C/C(=O)c2ccc(Cl)cc2Cl)c(OC)c1 | 0.9 µM | 0.899 µM
32 | O=C(/C=C/c1ccc(F)cc1F)c1cc2ccccc2nc1Cl | 1 µM | 1 µM
33 | O=C(/C=C/c1cccnc1)c1cc2ccccc2nc1Cl | 0.71 µM | 0.71 µM
34 | COc1ccc(/C=C/C(=O)c2cc3ccccc3nc2Cl)c(OC)c1 | 1 µM | 1 µM
35 | COc1ccc(/C=C/C(=O)c2ccc(F)c(F)c2)c(OC)c1 | 2.09 µM | 2.09 µM
36 | COc1ccc(/C=C/C(=O)c2ccc3ccccc3c2)cc1OC | 7.7 µM | 7.69 µM
37 | COc1ccc(/C=C/C(=O)c2cccc(Cl)c2Cl)c(OC)c1 | 1.38 µM | 1.38 µM
38 | COc1ccc(/C=C/C(=O)c2ccccn2)cc1 | 12 µM | 12 µM
39 | COc1cc(/C=C/C(=O)c2cccc3ccccc23)cc(OC)c1OC | 4.8 µM | 4.8 µM
40 | COc1cc(/C=C/C(=O)c2ccc3ccccc3c2)cc(OC)c1 | 9.5 µM | 9.51 µM
41 | COc1ccc(/C=C/C(=O)c2ccc(Cl)cc2Cl)c(OC)c1OC | 0.36 µM | 0.36 µM
